In one data set the test system is LXR. The settings on record: cited from earlier work.
The test system of data set [1] is human LXRβ. Kind of data set: GAL4-LXRβ reporter gene assay in transiently transfected CV-1 cells. Format: cell-based. The settings on record: for LXRβ-selectivity factor, fold activation of LXRβ/LXRα: 10 μM, CV-1 reporter gene assays; for activation of LXRβ: reporter gene assay, CV-1 cells. On the procedure:
(§1) Several potential LXR ligands were synthesized as described in Example 5. These compounds were assayed for activity on human LXRα and LXRβ using high-throughput reporter gene assays (e.g., reporter gene assays using Biomek automated workstation) in transiently transfected CV-1 cells.
(§2) In the reporter gene assay CV-1 cells were grown in Dulbecco's Modified Eagle's medium supplemented with 10% resin-charcoal stripped fetal bovine serum, 50 U/ml penicillin G and 50 μg/ml streptomycin sulfate (DMEM-FBS) at 37° C. in 5% CO2. One day prior to transfection, cells were plated to 50-80% confluence using phenol-red free DMEM-FBS. Cells were transiently transfected by lipofection with DOTAP. A GAL4 luciferase reporter construct (300 ng/10^5 cells) and cytomegalovirus driven expression vectors for GAL4-LXRα or GAL4-LXRβ (20-50 ng/10^5 cells) were added along with CMX-βgal (500 ng/10^5 cells) as an internal control. After 2 hours the liposomes were removed and cells treated for approximately 45 hours with phenol-red free DMEM-FBS containing the indicated LXR ligands. After exposure to ligand, the cells were harvested and assayed for luciferase and β-galactosidase activity. All points were assayed in triplicate. […] Use of reporter gene assays are known in the art and described for example in Sambrook et al., Molecular Cloning: A Laboratory Manual, 2nd Ed., Cold Spring Harbor Laboratory Press, Cold Spring Harbor, N.Y.

A further data set relates to human LXRα. Description: GAL4-LXRα reporter gene assay in transiently transfected CV-1 cells. In kind it is cell-based. The protocol: as §1
In the reporter gene assay CV-1 cells were grown in Dulbecco's Modified Eagle's medium supplemented with 10% resin-charcoal stripped fetal bovine serum, 50 U/ml penicillin G and 50 μg/ml streptomycin sulfate (DMEM-FBS) at 37° C. in 5% CO2. One day prior to transfection, cells were plated to 50-80% confluence using phenol-red free DMEM-FBS. Cells were transiently transfected by lipofection with DOTAP. A GAL4 luciferase reporter construct (300 ng/10^5 cells) and cytomegalovirus driven expression vectors for GAL4-LXRα or GAL4-LXRβ (20-50 ng/10^5 cells) were added along with CMX-βgal (500 ng/10^5 cells) as an internal control. After 2 hours the liposomes were removed and cells treated for approximately 45 hours with phenol-red free DMEM-FBS containing the indicated LXR ligands. After exposure to ligand, the cells were harvested and assayed for luciferase and β-galactosidase activity. All points were assayed in triplicate. […]

Another data set concerns ABCA1. Kind of data set: Gene expression analysis of endogenous LXR target gene ABCA1 in H4 cells. In kind it is cell-based, human. The settings on record: for induction of ABCA1 expression: H4 neuroglioma cells, compared with T0901317. The protocol:
(§3) The effect of various concentrations of LXRβ-selective compounds on endogenous LXR target genes in H4 cells was examined. […] Induction of ABCG1, another lipid-transporter regulated by LXR, was also observed in H4 cells treated with T0901317, DY136 and DY142. […] Gene expression analysis was conducted to measure the endogenous LXR target genes. Briefly, cells were plated in a 6-well plate at the following densities/well: 0.35 million H4 cells (DMEM, 10% FBS), 0.5 million CCF-STTG1 (RPMI, 15% FBS), 1 million SH-SY5Y (RPMI, 15% FBS), or 1 million THP (RPMI, 15% FBS+100 nM TPA for 3 days to differentiate). The cells were treated the next day in serum-free DMEM supplemented with insulin, transferrin, and selenium and apoA1 (10 μg/ml). The media was harvested 24 hours later, mixed with a protease inhibitor cocktail (Roche), debris was pelleted (14000 g, 5 min.) and the supernatant saved for Aβ measurements (below). The cells were then rinsed with PBS and lysed with Trizol reagent. RNA isolation and cDNA synthesis (OmniScript, Qiagen) were as per manufacturer's protocol. Gene expression analysis was done in triplicate with 30 ng of cDNA and the following primer-sets: ABCA1, ABCG1, SREBP1c, GAPDH, HPRT (either SYBR Green or FAM-labeled LUX primers (Invitrogen). None of these primers produce primer-dimers or amplified genomic DNA (all primer-sets are intron spanning). The signal for each target gene was normalized to GAPDH and/or HPRT.

The test system of the next data set is Aβ40. Description: Aβ40 secreted into the media of H4 cells (ELISA kit). In kind it is cell-based, human. Conditions: 1 μM, 24 hours. The protocol: In order to confirm the effects of LXR activation on Aβ production in human cells, human H4 neuroglioma cells were treated with the pan-LXR agonist T0901317 (1 μM) for 24 hours and measured the amount of total cellular cholesterol remaining in the cells and the amount of Aβ40 secreted into the media (FIG. 1). As expected, T0901317 reduced both intracellular cholesterol levels as well as secreted Aβ40. […] Also as expected, T0901317 induced a greater than 50-fold increase in ABCA1 expression in H4 cells (FIG. 2). […] To quantify Aβ production, cells were cultured as described above (gene expression analysis). Media was added to the diluent Buffer provided with the kit and assayed according to the manufacturer's instructions (Biosource).

The next data set concerns apoE. Description: Gene expression analysis of apoE in H4 cells. Format: cell-based, human. Conditions: H4 neuroglioma cells.
The subject of data set [2] is human H4 neuroglioma cells. Description: Quantification of total cellular cholesterol in H4 cells (GC-MS). Format: cell-based. The settings on record: 1 μM, 24 hours. The protocol: In order to confirm the effects of LXR activation on Aβ production in human cells, human H4 neuroglioma cells were treated with the pan-LXR agonist T0901317 (1 μM) for 24 hours and measured the amount of total cellular cholesterol remaining in the cells and the amount of Aβ40 secreted into the media (FIG. 1). As expected, T0901317 reduced both intracellular cholesterol levels as well as secreted Aβ40. […] Also as expected, T0901317 induced a greater than 50-fold increase in ABCA1 expression in H4 cells (FIG. 2). […] For quantification of total cellular cholesterol, H4 cells are seeded in 12-well plates at 70,000 per well. Cells are treated with DMSO (vehicle) or T0901317 in serum-free DMEM for 24 hours in presence of 10 μg/ml apoA1. Cells were lysed with 1N NaOH in 90% ethanol and 10 μM of 5α-cholestane as an internal control tracer. Cholesterol esters were hydrolyzed by incubation at 65° C. for 2 hours. Equal volume of water is added to the samples, and extracted twice with 2 volumes of hexane.

Data set [3] deals with primary neuronal and astrocyte cultures. Conditions: cited from earlier work.
Data set [4] concerns mouse Neuro2A cells expressing human APPswe. Conditions: cited from earlier work.
The next data set deals with ABCG1. Description: Gene expression analysis of endogenous LXR target gene ABCG1 in H4 cells. In kind it is cell-based, human. On the procedure: as §3
In data set [5] the test system is transgenic mice expressing human APPswe. Conditions: one-week treatment; cited from earlier work.
A further data set has as its system C57BL/6 mice. Conditions: 1 week of treatment; cited from earlier work.
Data set [6] addresses T1, human LXRβ (Homo sapiens, UniProt P55055).
T1 construct: EC50; other: reporter gene assay, CV-1 cells
T1 sequence (P55055 222-460): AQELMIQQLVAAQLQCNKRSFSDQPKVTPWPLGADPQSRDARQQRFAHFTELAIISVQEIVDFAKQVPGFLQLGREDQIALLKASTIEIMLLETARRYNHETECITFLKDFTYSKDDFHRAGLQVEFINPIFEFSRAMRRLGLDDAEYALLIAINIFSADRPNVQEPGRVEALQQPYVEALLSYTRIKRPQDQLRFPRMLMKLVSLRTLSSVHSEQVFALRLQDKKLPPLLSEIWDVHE
Kind of data set: GAL4-LXRβ reporter gene assay in transiently transfected CV-1 cells. Conditions: reporter gene assay, CV-1 cells; FIG. 2 left; receptor subtype not stated. Format: cell-based. On the procedure:
as §1, §2

The subject of the next data set is SREBP1c. Kind of data set: Gene expression analysis of endogenous LXR target gene SREBP1c in H4 cells. Format: cell-based, human. The settings on record: compared with T0901317. On the procedure: as §3, with “Gene expression analysis was done in triplicate with 30 ng of cDNA and the following primer-sets: ABCA1, ABCG1, SREBP1c, GAPDH, HPRT (either SYBR Green or FAM-labeled LUX primers (Invitrogen). None of these primers produce primer-dimers or amplified genomic DNA (all primer-sets are intron spanning). The signal for each target gene was normalized to GAPDH and/or HPRT.” left out

Entries after “also recorded” stand apart in the source; their conditions may differ.

The values below come from US8993628B2, “Synthetic ligands selective for LXRβ over LXRα, identification and methods of use thereof” (City of Hope, priority 2007, dated 2015).

As for `O=C(O)Cc1cccc(OCCCN(Cc2cccc(C(F)(F)F)c2Cl)CC(c2ccccc2)c2ccccc2)c1` [GW3965], in the data set with LXR, the “association of LXR with a coactivator peptide derived from SRC-1” value is on record as “promotes association”. Besides, in the data set with human LXRβ [1], the “LXRβ-selectivity factor, fold activation of LXRβ/LXRα” value turned out to be 2.2 and the “activation of LXRβ” value is listed as “activated”. Moreover, in the data set with human LXRα, the “activation of LXRα” value was “activated”.

For the molecule `O=S(=O)(c1ccccc1)N(CC(F)(F)F)c1ccc(C(O)(C(F)(F)F)C(F)(F)F)cc1` [T0901317], the “increase in ABCA1 expression” value with ABCA1 (H4 cells) was “greater than 50 fold”. Also, in the data set on human LXRβ [1], the “LXRβ-selectivity factor, fold activation of LXRβ/LXRα” value was determined as 1.7 and the “activation of LXRβ” value was “activated”. In the data set on Aβ40, the “secreted Aβ40” value is given as “reduced”. Further, the ApoE expression result in the data set on apoE is “increased”. For the same molecule, the “intracellular cholesterol levels (total cellular cholesterol)” value in data set [2] was “reduced”. The cholesterol efflux result in data set [3] is given as “enhanced cholesterol efflux”. The Aβ production entry in data set [4] was “decreased”. Also, the “induction of ABCG1” value with ABCG1 is on record as “observed”. For the same molecule, the “Aβ40 and Aβ42 in the brain” value in [5] is “significant decrease”. Further, the hypertriglyceridemia entry with C57BL/6 mice is “induces severe hypertriglyceridemia”. For the same molecule, the “activation of LXRα” value in the data set on human LXRα was “activated”.

Turning to `O=C(O)Cc1cccc(OCCCN(Cc2cccc(C(F)(F)F)c2F)CC(c2ccccc2)c2ccccc2)c1` [DY136, (3-{3-[(2,2-Diphenyl-ethyl)-(2-fluoro-3-trifluoromethyl-benzyl)-amino]-propoxy}-phenyl)-acetic acid], the “induction of ABCA1 expression” value in the data set on ABCA1 is “expected activation; also recorded: to a level nearly that of the pan-agonist T0901317”. The “LXRβ-selectivity factor, fold activation of LXRβ/LXRα” value in the data set with human LXRβ [1] was determined as 3.4. The EC50 on human LXRβ [6] lay within 1000 to 3000 nM. Further, in the data set with apoE, the ApoE expression result is “increased”. Also, in the data set with SREBP1c, the “induction of SREBP1c” value was “little effect; also recorded: only half that observed with T0901317”. The “induction of ABCG1” value in the data set on ABCG1 is “observed”.

Regarding `O=C(O)Cc1cccc(OCCCN(Cc2cccc(C(F)(F)F)c2)CC(c2ccccc2)c2ccccc2)c1` [DY142, (3-{3-[(2,2-Diphenyl-ethyl)-(3-trifluoromethyl-benzyl)-amino]-propoxy}-phenyl)-acetic acid], the “induction of ABCA1 expression” value in the data set on ABCA1 was “expected activation; also recorded: to a level nearly that of the pan-agonist T0901317”. Further, the “LXRβ-selectivity factor, fold activation of LXRβ/LXRα” value with human LXRβ [1] came to 6.5. In addition, on human LXRβ [6], the concentration giving a half-maximal response (EC50) lay within 1000 to 3000 nM. Further, the ApoE expression result in the data set on apoE was “increased by all three ligands, although the effects were slightly lower”. Moreover, the “induction of SREBP1c” value in the data set on SREBP1c was “little effect; also recorded: only half that observed with T0901317”. Besides, the “induction of ABCG1” value in the data set on ABCG1 was “observed”.
